{"source": "patent US20260199246A1", "about": "“LUMATEPERONE PHARMACEUTICAL COMPOSITION, AND LONG-ACTING MICROSPHERE SUSTAINED-RELEASE FORMULATION AND PREPARATION METHOD THEREFOR” (SICHUAN KELUN PHARMACEUTICAL RESEARCH INSTITUTE CO., LTD., priority 2022, published 2026)", "origin": "cited, not measured here", "conditions": "compared with risperidone"}
{"smiles": "CN1CCN2c3c(cccc31)[C@@H]1CN(CCCC(=O)c3ccc(F)cc3)CC[C@@H]12", "note": "[Lumiperone, Lumateperone]", "values": [{"measurement": "reduction of the risk of weight gain", "value": 13, "unit": "%"}]}
